In patent US10555910B2, “Oligonucleotide lipid nanoparticle compositions, methods of making and methods of using the same” (Ohio State Innovation Foundation, priority 2014, dated 2020):

How the values were obtained:
[1] = system: miR-21; experiment: In vivo gene regulation in A549 xenograft tumors (qRT-PCR); design: species or system mice; conditions: 1 mg/kg QT/AM-21 and/or 3 mg/kg PTX
Experimental: (§1) Female athymic nude mice (n=5 per group) were implanted with 1.0×10^6 A549 cells/mouse and treatment began when tumors reached a size of ≥100 mm^3. Mice were treated by tail vein injection with saline control or 1 mg/kg QT/AM-21. Mice receiving PTX treatment as monotherapy or combination therapy received PTX dissolved in 1:1 Cremephor EL:ethanol solution at a dose of 3 mg/kg via intraperitoneal injection. Mice were dosed on days 1, 3, 5, 8, 15, 22, 29 and were monitored over a 4 week period. 48 h following the last dose, mice were euthanized and tumors were collected for gene regulation study.
Tumors were harvested and placed in TRIzol reagent (Life Technologies) following treatment and homogenized. mRNA was isolated per the manufacturer's protocol. qRT-PCR was then completed according to the same procedure as outlined in the in vitro section.

[2] = system: A549 cells; type: cell-based, human; design: decrease of cell viability: dose or concentration left out as unconfirmed
Experimental: Cells were grown in 96-well plates at a density of 2.0 ×10^4 cells/well. Cells were treated with controls or QT/AM-21 at 50, 100, or 200 nM, with and without PTX (4.1 nM) dissolved in a small volume of 1:1 Cremophor EL:ethanol solution. Relative cell viability was quantified by CellTiter 96® AQueous One Solution Cell Proliferation Assay (Promega, Madison, Wis., USA) according to the manufacturer's protocol 72 h following the start of treatment. Briefly, 20 μL MTS assay solution was added to each well and the plates were incubated for 1 h. The absorbance at 490 nm was recorded to determine cytotoxicity relative to the untreated control.
A549 cells were cultured as in Example 2, and treated with either QT/AM-21 (5′-U*C*A*ACAUCAGUCUGAUAAG*C*U*A-3′, SEQ ID NO:3) at three different concentrations (50 nM, 100 nM or 200 nM), paclitaxel (PTX) or a combination of PTX and QT/AM-21 (PTX/50 nM QT/AM-21; PTX/QT/100 nM-21; TX/200 nM QT/AM-21). (Dosage of PXT was 4nM).
The cells were incubated with the drugs for 72 h; after which the cells were harvested and tested for cytotoxicity and viability using MTS assay kit by Promega. Absorbance scanning was done at 490 nm to determine relative cell viabilities.

[3] = system: A549 xenograft; experiment: Combination therapy (QT/AM-21 and PTX) in A549 xenograft; type: in vivo, mice; conditions: 1 mg/kg QT/AM-21 tail vein and/or 3 mg/kg PTX i.p., start ~80 mm^3, 4 weeks
Experimental: as §1, with “Mice” for “Female athymic nude mice (n=5 per group) were implanted with 1.0×10^6 A549 cells/mouse and treatment began when tumors reached a size of ≥100 mm^3. Mice”

[4] = system: miR-21; experiment: In vitro gene regulation in A549 cells (qRT-PCR of miR-21 and its target genes); type: cell-based, human; conditions: 100 nM AM-21, mRNA relative to GAPDH
Experimental: Cells were grown in 24-well plates at a density of 7.0×10^5 cells/well 24 h prior to transfection. QT/AM-21 of varying lipid composition or QT/negative control (NC) were administered at 50 nM in the presence of 20% serum containing media to determine the optimal QT composition. […] Cells were incubated at 37° C. with transfection media for 4 h and then washed three times with PBS. Fresh complete cell culture media was added and the cells were incubated at 37° C. for an additional 44 h. RNA was isolated from cells by RNeasy 96 kit (Qiagen, Valencia, Calif., USA). qRT-PCR was conducted with Taqman® MicroRNA Assay (Life Technologies) or EXPRESS One-Step Superscript® qRT-PCR kit (Life Technologies) on an Applied Biosystems StepOnePlus™ RT-PCR system (Life Technologies). The relative amount of […] was calculated and compared according to the 2^−ΔΔCt method.
Lung cancer A549 cells (human lung adenocarcinoma epithelial cell line) were cultured in vitro as standard cell culture. Cells were cultured in RPMI 1640 media supplemented with 10% FBS and 1% antibiotics/antimycotics in a 5% CO2 atmosphere at 37° C. […]
RNA was extracted by TRIzol reagent per manufacturer's protocol. cDNA was generated by Maxima First Strand cDNA synthesis kit per manufacture's protocol. […] RECK and PTEN mRNA levels were measured relative to GAPDH.

[5] = system: A549 cells; experiment: Matrigel invasion assay; type: cell-based, human; conditions: A549, QT lipids or AM-21 alone, 48 h
Experimental: Matrigel (BD Biosciences, San Jose, Calif., USA) was combined with serum-free RPMI 1640 culture media in a 1:1 ratio. 70 μL of gel was added to each well insert of a 24-well plate. The gel was allowed to set for 1 h at 37° C. A549 cells were seeded at […] in a volume of 100 μL/well on top of the gel in the insert. Transfection media containing various formulations or controls at 2×concentration in a 100 μL volume were added to the top of the well inserts. 500 μL 10% fetal bovine supplemented media was added as a chemoattractant below the transwell insert. The plate was incubated at 37° C. for 48 h. Following the incubation period, cells remaining in the top of the well inserts were removed with a cotton swab. Well inserts were rinsed with PBS and placed in 500 uL 0.25% trypsin solution for 1 h at 37° C. Detached cells were counted on a hemocytometer.
A matrigel invasion assay was also performed after 48 hour treatment, as follows: Chilled Matrigel was combined with chilled serum-free RPMI 1640 culture media in a 1:1 ratio. 70 uL of gel was added to each well insert of a 24-well plate. The gel was allowed to set for 1 hour at 37° C. A549 cells were seeded at 75,000 cells/well in a volume of 100 uL/well on top of the gel. […] Detached cells were counted on a hemocytometer.

[6] = system: A549 cells; experiment: Migration assay (scratch wound healing); type: cell-based, human; conditions: A549, QT lipids or AM-21 (200 nM) alone, 48 h
Experimental: A wound healing model was conducted to examine the migratory ability of A549 cells following treatment. A549 cells were plated at a density of 6.0×10^5 cells/well in a 33 mm petri dish 24 h prior to transfection. A scratch wound across the dish was made using a 10 μL pipet tip immediately before treatment. Culture media was removed and replaced with transfection media containing QT/AM-21 or appropriate controls diluted in complete media. Cells were allowed to proliferate at 37° C. for 48 h. Distances between edges of the wound were measured on a Nikon E800 microscope (Nikon, Tokyo, Japan) and SPOT Advanced Imaging Software (v5.0, Diagnostic Instruments Inc., Sterling Heights, Mich., USA).
A549 cells were cultured following standard culture procedure and incubated with QT/AM-21 (5′-U*C*A*ACAUCAGUCUGAUAAG*C*U*A-3′, SEQ ID NO:3) at three different concentrations (50 nM, 100 nM and 200 nM), or free, unformulated AM-21 (200 nM) for 48 hours. The untreated cells and cells treated with empty “QTsome™” lipid nanoparticle formulation were used as control. The migration of tumor cells was determined.

Compound | upregulation of DDAH1 and PTEN in tumors [1] | DDAH1 upregulation in tumors ([1]; 48 h after last dose) [fold] | PTEN upregulation in tumors ([1]; 48 h after last dose) [fold] | cells still alive compared to untreated control ([2]; A549, PTX alone (4 nM), 72 h, MTS) [%] | decrease of cell viability ([2]; human, 72 h) [%] | tumor volume at end of study [3] [mm^3] | change of cell viability on addition to PTX ([2]; A549, free AM-21 or QT lipids added to PTX, MTS) | expression of RECK compared to untreated control A549 cells [4] | cell invasion [5] | cell migration in the wound region [6]
CC(=O)O[C@H]1C(=O)[C@@]2(C)[C@H]([C@H](OC(=O)c3ccccc3)[C@]3(O)C[C@H](OC(=O)[C@H](O)[C@@H](NC(=O)c4ccccc4)c4ccccc4)C(C)=C1C3(C)C)[C@]1(OC(C)=O)CO[C@@H]1C[C@@H]2O [PTX, Paclitaxel] | moderate upregulation | 1.7 | 1.5 | ~65 | 40 | 246.4 | – | – | – | –
u*c*a*acaucagucugauaag*c*u*a (UCAACAUCAGUCUGAUAAGCUA; linkages s3 o15 s3 (s phosphorothioate, o phosphodiester), sugars by position and methylation of C not given here; further chemistry not fully specified) [AM-21] | – | – | – | – | – | – | did not result in significant decreases in cell viability | upregulated | did not significantly retard cell invasion | did not confer significant decreases in cell migration
